Results published in patent EP1479389B1, “Ready to use gemcitabine solutions” (STADA ARZNEIMITTEL AG, priority 2003, dated 2004).

How the values were obtained:
Format in all cases: physicochemical
[1] = Visible precipitation of aqueous gemcitabine solutions on storage (solubility, initial pH ca. 4,0); settings: water, pH 4, water, 2-8°C storage, no solubility enhancers, read-out: Gehalt klarer partikelfreier Gemcitabinlösungen
Method: Zur Bestimmung der Löslichkeit von Gemcitabin in wässrigen Lösungen (bei T = 25°C und T = 2-8°C, Anfangs-pH-Wert = 4,0) wurde Gemcitabinhydrochlorid in Wasser für Injektionszwecke bei 25°C gelöst (c(Gemcitabin) = 55,2 mg/ml entsprechend 62,8 mg Gemcitabinhydrochlorid pro ml Wasser sowie c(Gemcitabin) = 10,0mg/ml entsprechend 11,38 mg Gemcitabinhydrochlorid pro ml Wasser) und der pH-Wert mit q.s. 1 N Natronlauge / q.s. 1 N Salzsäure eingestellt.
Aus dem so gewonnenen Ansatz wurden mit Wasser für Injektionszwecke verdünnte Lösungen hergestellt und potentiometrisch deren pH-Wert bestimmt. Die hergestellten Lösungen wurden jeweils als 5ml-Aliquote in mit Durchstechstopfen dicht verschlossenen Vials abgefüllt. Diese Proben wurden nach Lagerung bei 2-8°C bzw. bei 25°C auf sichtbare Auskristallisation des Wirkstoffs geprüft ("+" Niederschlag; "-" klar und partikelfrei) und ihr pH-Wert bestimmt. Tabelle 1: Niederschlagbildung in 25°C und 2-8°C-gelagerter Gemcitabinlösungen (Anfangs-pH ca. 4,0)

[2] = pH-dependent visible crystallisation of concentrated gemcitabine solutions; settings: pH 5,0; 25°C; c=52,7 mg Gemcitabin/ml
[3] = Temperature-dependent storage stability of gemcitabine solutions pH 4,0, content by HPLC; settings: 10 mg/ml
Method: Zur weiteren Bestimmung der Temperatur-Abhängigkeit der Stabilität von erfindungsgemäßen Gemcitabin-Lösungen mit einem pH-Wert von ca. 4,0, wurden wie zuvor beschrieben Lösungen, deren pH-Wert mit 1 N Natronlauge eingestellt wurde, mit einer Gemcitabin-Konzentration von 10 mg/ml (in Wasser für Injektionszwecke) hergestellt. Diese wurden über einen Zeitraum von 12 Monaten gelagert. In dieser Zeit wurde die Wirkstoffkonzentration in regelmäßigen Abständen mittels HPLC bestimmt. Tabelle 3: Temperatur-abhängige Stabilität von Gemcitabin-Lösungen (c(Gemcitabin) = 10 mg/ml entsprechend 11,39 mg Gemcitabinhydrochlorid pro ml Wasser, pH 4,0)

[4] = Regressive extrapolation of the Table 6 storage stability data to 1-4 years; settings: 10 mg/ml in aqueous solution, pH ca. 8; Lagertemperatur 25°C
Method: Eine regressive Extrapolation der in Tabelle 6 angegebenen Daten ergab folgende in Tabelle 7 aufgeführte Lagerstabilitäten. Tabelle 7 : Stabilität von Gemcitabin-Lösungen mit pH = 8,0 bei 25°C, 40°C und 60°C bei einer Lagerzeit von 1-4 Jahren

[5] = pH-dependent visible crystallisation of concentrated gemcitabine solutions; settings: c=52,7mg Gemcitabin/ml
Method: Zur Bestimmung der tatsächlichen, pH-abhängigen Löslichkeit von Gemcitabin in wässrigen Lösungen wurden entsprechend Beispiel 1 konzentrierte Gemcitabin-Lösungen (c=52,7 mg Gemcitabin/ml entsprechend 60mg Gemcitabinhydrochlorid pro ml Wasser; 5 ml/Vial) hergestellt, deren pH-Wert mit q.s. 1 N Natronlauge auf pH-Werte von 2,0 bis 5,0 eingestellt wurde. Die so erhaltenen Lösungen wurden bei einer Lagertemperatur von 2-8°C gelagert.
Tabelle 2: Stabilität von konzentrierten Gemcitabin-Lösungen vs. Auskristallisation des Wirkstoffs

Compound: Nc1ccn([C@@H]2O[C@H](CO)[C@@H](O)C2(F)F)c(=O)n1 [Gemcitabin, 2'-Deoxy-2',2'-difluorcytidin]
- solubility [1]: ~10000 µg/mL
- Auskristallisation [2]: spontane (pH 5,0; 25°C) Auskristallisation
- Gehalt ([3]; 5°C, 0 mon): 100,0 rel.%
- Gehalt ([3]; 5°C, 3 mon, 129600 min): 99,7 rel.%
- Gehalt ([3]; 5°C, 6 mon, 259200 min): 99,4 rel.%
- Gehalt ([3]; 5°C, 9 mon, 388800 min): 99,2 rel.%
- Gehalt ([3]; 5°C, 12 mon, 518400 min): 99,0 rel.%
- Gehalt ([3]; 15°C, 0 mon): 100,0 rel.%
- Gehalt ([3]; 15°C, 3 mon, 129600 min): 99,6 rel.%
- Gehalt ([3]; 15°C, 6 mon, 259200 min): 99,2 rel.%
- Gehalt ([3]; 15°C, 9 mon, 388800 min): 98,8 rel.%
- Gehalt ([3]; 15°C, 12 mon, 518400 min): 98,3 rel.%
- Gehalt ([3]; 25°C, 0 mon): 100,0 rel.%
- Gehalt ([3]; 25°C, 3 mon, 129600 min): 97,1 rel.%
- Gehalt ([3]; 25°C, 6 mon, 259200 min): 94,1 rel.%
- Dauer, über die die Lösungen stabil sind [4]: ≥ 3 Jahren
- Sichtbare Auskristallisation ([5]; pH 2,0, nach 1 Tag (2-8°C)): +
- Sichtbare Auskristallisation ([5]; pH 2,0, nach 2 Tagen (2-8°C)): +
- Sichtbare Auskristallisation ([5]; pH 2,0, nach 3 Tagen (2-8°C)): +
- Sichtbare Auskristallisation ([5]; pH 2,0, nach 7 Tagen (2-8°C)): +
- Sichtbare Auskristallisation ([5]; pH 2,0, nach 14 Tagen (2-8°C)): +
- Sichtbare Auskristallisation ([5]; pH 2,5, nach 1 Tag (2-8°C)): -
- Sichtbare Auskristallisation ([5]; pH 2,5, nach 2 Tagen (2-8°C)): +
- Sichtbare Auskristallisation ([5]; pH 2,5, nach 3 Tagen (2-8°C)): +
- Sichtbare Auskristallisation ([5]; pH 2,5, nach 7 Tagen (2-8°C)): +
- Sichtbare Auskristallisation ([5]; pH 2,5, nach 14 Tagen (2-8°C)): +
- Sichtbare Auskristallisation ([5]; pH 3,0, nach 1 Tag (2-8°C)): -
- Sichtbare Auskristallisation ([5]; pH 3,0, nach 2 Tagen (2-8°C)): +
- Sichtbare Auskristallisation ([5]; pH 3,0, nach 3 Tagen (2-8°C)): +
- Sichtbare Auskristallisation ([5]; pH 3,0, nach 7 Tagen (2-8°C)): +
- Sichtbare Auskristallisation ([5]; pH 3,0, nach 14 Tagen (2-8°C)): +
- Sichtbare Auskristallisation ([5]; pH 3,5, nach 1 Tag (2-8°C)): -
- Sichtbare Auskristallisation ([5]; pH 3,5, nach 2 Tagen (2-8°C)): -
- Sichtbare Auskristallisation ([5]; pH 3,5, nach 3 Tagen (2-8°C)): -
- Sichtbare Auskristallisation ([5]; pH 3,5, nach 7 Tagen (2-8°C)): -
- Sichtbare Auskristallisation ([5]; pH 3,5, nach 14 Tagen (2-8°C)): -
